The term Ki denotes a measure of affinity in units of concentration, obtained from inhibition or displacement. The low end stands for tighter binding, the high end for weaker binding.

For four compounds, Ki results are on record in BindingDB's records for doi:10.1074/jbc.271.42.26315 (Bayer, 1996).

Experiment [1] addresses T1, Neuropeptide Y receptor type 5 (Rattus norvegicus, UniProt Q63634).
T1 sequence (Q63634 whole entry): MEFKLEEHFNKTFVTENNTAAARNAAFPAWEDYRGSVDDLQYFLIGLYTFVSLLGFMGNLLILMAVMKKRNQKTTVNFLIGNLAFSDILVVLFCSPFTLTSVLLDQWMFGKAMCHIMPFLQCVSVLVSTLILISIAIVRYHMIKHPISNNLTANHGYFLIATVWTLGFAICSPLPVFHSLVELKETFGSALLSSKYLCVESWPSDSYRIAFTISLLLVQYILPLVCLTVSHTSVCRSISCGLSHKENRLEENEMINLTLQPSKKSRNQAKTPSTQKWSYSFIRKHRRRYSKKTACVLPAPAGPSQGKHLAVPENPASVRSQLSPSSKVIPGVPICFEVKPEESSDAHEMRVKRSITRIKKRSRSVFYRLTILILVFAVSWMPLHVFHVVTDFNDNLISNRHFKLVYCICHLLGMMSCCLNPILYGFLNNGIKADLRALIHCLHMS

For experiment [2], the target named is T2, Neuropeptide Y receptor type 5 (Homo sapiens, UniProt Q15761).
T2 sequence (Q15761 whole entry): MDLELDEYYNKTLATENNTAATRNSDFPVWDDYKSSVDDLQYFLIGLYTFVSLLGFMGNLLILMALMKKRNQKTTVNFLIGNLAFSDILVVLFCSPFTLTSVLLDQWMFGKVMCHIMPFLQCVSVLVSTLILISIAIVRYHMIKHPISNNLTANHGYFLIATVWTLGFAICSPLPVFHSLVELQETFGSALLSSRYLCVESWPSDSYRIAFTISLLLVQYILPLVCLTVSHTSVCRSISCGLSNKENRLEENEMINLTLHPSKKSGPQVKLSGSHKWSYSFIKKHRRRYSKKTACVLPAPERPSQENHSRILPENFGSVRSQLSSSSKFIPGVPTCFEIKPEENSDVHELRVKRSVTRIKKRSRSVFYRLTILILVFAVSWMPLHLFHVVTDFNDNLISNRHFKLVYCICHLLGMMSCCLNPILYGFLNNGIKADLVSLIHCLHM

Several values for one entry are separate records, joined by “and”; a condition that tells them apart may be missing. Equal values may be shown once. Peptide text beside a SMILES is read from it.

For `CC[C@H](C)[C@H](NC(=O)[C@H](Cc1ccc(O)cc1)NC(=O)[C@H](Cc1cnc[nH]1)NC(=O)[C@H](CCCN=C(N)N)NC(=O)[C@H](CC(C)C)NC(=O)[C@H](C)NC(=O)[C@@H](N)CO)C(=O)N[C@@H](CC(N)=O)C(=O)N[C@@H](CC(C)C)C(=O)N[C@H](C(=O)N[C@H](C(=O)N[C@@H](CCCN=C(N)N)C(=O)N[C@@H](CCC(N)=O)C(=O)N[C@@H](CCCN=C(N)N)C(=O)N[C@@H](Cc1ccc(O)cc1)C(N)=O)[C@@H](C)O)[C@@H](C)CC` [NPY22-36, rat, human], the Ki in experiment [1] and in experiment [2] was 1000 nM in each case. In experiment [2], `CC(C)C[C@H](NC(=O)[C@H](CO)NC(=O)[C@H](C)NC(=O)[C@H](Cc1ccc(O)cc1)NC(=O)[C@H](Cc1ccc(O)cc1)NC(=O)[C@H](CCCNC(=N)N)NC(=O)[C@H](CO)NC(=O)[C@H](CC(C)C)NC(=O)[C@H](CCC(=O)O)NC(=O)[C@H](CCC(=O)O)NC(=O)[C@@H]1CCCN1C(=O)[C@@H](N)CO)C(=O)N[C@@H](CCCNC(=N)N)C(=O)N[C@@H](Cc1c[nH]cn1)C(=O)N[C@@H](Cc1ccc(O)cc1)C(=O)N[C@@H](CC(C)C)C(=O)N[C@@H](CC(N)=O)C(=O)N[C@@H](CC(C)C)C(=O)N[C@H](C(=O)N[C@H](C(=O)N[C@@H](CCCNC(=N)N)C(=O)N[C@@H](CCC(N)=O)C(=O)N[C@@H](CCCNC(=N)N)C(=O)N[C@@H](Cc1ccc(O)cc1)C(N)=O)[C@@H](C)O)C(C)C` [PYY 3-36, rat] (H-SPEELSRYYASLRHYLNLVTRQRY-NH2) yielded an inhibition constant (Ki) of 10 nM.

`N=C(N)NCCCC(NC(=O)C(c1ccccc1)c1ccccc1)C(=O)NCc1ccc(O)cc1` (stereo unspecified) [NSC_5311023]: in experiment [1], the inhibitory constant (Ki) stood at 1000 nM. For `CC[C@H](C)[C@H](NC(=O)[C@H](Cc1ccc(O)cc1)NC(=O)[C@H](CCCNC(=N)N)NC(=O)[C@H](CCCNC(=N)N)NC(=O)[C@H](CC(C)C)NC(=O)[C@H](CCC(N)=O)NC(=O)[C@@H](NC(=O)[C@H](CCC(=O)O)NC(=O)[C@H](Cc1ccc(O)cc1)NC(=O)[C@H](CCC(N)=O)NC(=O)[C@H](C)NC(=O)[C@H](CCCNC(=N)N)NC(=O)[C@H](CCC(N)=O)NC(=O)[C@H](CCC(=O)O)NC(=O)[C@H](Cc1c[nH]cn1)NC(=O)[C@@H](NC(=O)[C@H](C)NC(=O)[C@H](Cc1ccc(O)cc1)NC(=O)[C@H](CC(=O)O)NC(=O)CNC(=O)[C@@H]1CCCN1C(=O)[C@H](Cc1ccc(O)cc1)NC(=O)[C@H](CCSC)NC(=O)[C@@H]1CCCN1C(=O)[C@H](CCC(=O)O)NC(=O)[C@H](CC(C)C)NC(=O)[C@@H]1CCCN1C(=O)[C@H](C)N)[C@@H](C)O)[C@@H](C)O)C(=O)N[C@@H](CC(N)=O)C(=O)N[C@H](C(=O)N[C@@H](CC(C)C)C(=O)N[C@H](C(=O)N[C@@H](CCCNC(=N)N)C(=O)N1CCC[C@H]1C(=O)N[C@@H](CCCNC(=N)N)C(=O)N[C@@H](Cc1ccc(O)cc1)C(N)=O)[C@@H](C)O)[C@@H](C)O` [NSC_41735], the Ki is 62 nM and 296 nM in experiment [1]; 436 nM in experiment [2].
